Measured values taken from patent publication US4077952A, “Somatostatin analogs” (American Home Products Corporation, priority 1977, dated 1978).
Positions of bridges follow the written chain, without caps; N, C: chain ends. Non-standard residues stand in square brackets, D forms with d. Residues, ends and D or L forms follow the SMILES beside them.

Legend:
Format in all cases: in vivo
Conditions in all cases: albino male rats, blood 15 min after compound, 5 min after arginine
growth hormone (GH) = assay: Suppression of growth hormone in arginine-stimulated, nembutal-anesthetized rats
Description: (§1) Albino male rats are arranged in two groups (nine rats/group) and injected i.p. with nembutal at 50 mg/kg. Fifteen minutes after the nembutal injection they are injected s.c. according to group with test compound, or physiological saline. Ten minutes later 0.5 ml. of arginine (300 mg/ml. pH 7.2) is injected into the heart. The rats are decapitated five minutes after receiving the arginine, and the blood is collected into Trasylol-EDTA. Appropriate aliquots are then assayed for growth hormone (GH), glucagon (GLUN), and insulin (INS). […] Comparisons between control and experimental values are statistically evaluated by the analysis of variants method and statistical significance (p) at 0.05 or lower is used as the index of activity.

insulin (INS) = assay: Suppression of insulin in arginine-stimulated, nembutal-anesthetized rats
Description: as §1

glucagon (GLUN) = assay: Suppression of glucagon in arginine-stimulated, nembutal-anesthetized rats
Description: as §1

Structure (SMILES): C[C@@H](O)[C@@H]1NC(=O)[C@H](Cc2ccccc2)NC(=O)[C@H]([C@@H](C)O)NC(=O)[C@H](CCCCN)NC(=O)[C@@H](Cc2c[nH]c3ccccc23)NC(=O)[C@H](Cc2ccccc2)NC(=O)[C@H](Cc2ccccc2)NC(=O)[C@H](Cc2c[nH]cn2)NC(=O)[C@H](CCCNC(=N)N)NC(=O)[C@@H](N)CSSC[C@@H](C(=O)O)NC(=O)[C@H](CO)NC1=O [Example 2, L-Cysteinyl-L-Arginyl-L-Histidyl-L-Phenylalanyl-L-Phenylalanyl-D-Tryptophyl-L-Lysyl-L-Threonyl-L-Phenylalanyl-L-Threonyl-L-Seryl-L-Cysteine Cyclic (1-12) Disulfide] (H-CRHFF[dW]KTFTSC-OH; disulfide 1-12)
- GH plasma level (growth hormone (GH); Experiment 1, 100 μg/kg s.c., saline control 257 ± 49): 61 ng/mL
- GH plasma level (growth hormone (GH); Experiment 2, 10 μg/kg s.c., saline control 131 ± 43): 71 ± 21 ng/mL
- INS plasma level (insulin (INS); Experiment 1, 100 μg/kg s.c., saline control 177 ± 19): 52 ± 16 μU/ml
- INS plasma level (insulin (INS); Experiment 2, 10 μg/kg s.c., saline control 262 ± 26): 238 ± 72 μU/ml
- GLUN plasma level (glucagon (GLUN); Experiment 1, 100 μg/kg s.c., saline control 61 ± 9): 0 ± 0 pg/mL
- GLUN plasma level (glucagon (GLUN); Experiment 2, 10 μg/kg s.c., saline control 42 ± 6): 4 ± 3 pg/mL
